Earlier results as cited in US20250195455A1, “COMBINATION NASAL AND ORAL THERAPY FOR WEIGHT LOSS” (priority 2022, published 2025).
Where two headings read alike, the source gives them in different places.

Conditions: for evidence of weight loss: no drug trials for weight loss; for Average weight loss/one year: vs. 3% placebo

| Compound | Average weight loss vs. placebo (vs. placebo) | patients that have 5% weight loss/12 weeks | patients that have 10% weight loss/12 weeks | Average weight loss/one year | also measured |
| --- | --- | --- | --- | --- | --- |
| Albeglutide | 2.9 kg./year | – | – | – | – |
| CC1(C)O[C@@H]2[C@@H](CO[C@@]3(COS(N)(=O)=O)OC(C)(C)O[C@@H]23)O1 [Topiramate] | – | – | – | – | efficacy (vs. placebo) (vs. placebo): Minimal, if any efficacy |
| CCCCCCCCCCC[C@@H](C[C@@H]1OC(=O)[C@H]1CCCCCC)OC(=O)[C@H](CC(C)C)NC=O [Orlistat] | – | – | – | – | weight loss (vs. placebo)/6 months (6 months, vs. placebo): 5%; net loss (decreased fat absorption): approximately 500 kcal/day; net loss (equivalent of the kcal/day net loss): 1 lb./week |
| CNCCC(Oc1ccc(C(F)(F)F)cc1)c1ccccc1 (centres unmarked) [Fluoxetine] | – | – | – | – | evidence of weight loss: No evidence of weight loss |
| C[C@H]1CNCCc2ccc(Cl)cc21 [Lorcaserin] | – | – | – | – | weight loss/year vs. placebo (per year, vs. placebo): 3-5% |
| CCN(CC)C(C)C(=O)c1ccccc1 (centres unmarked) [Diethylpropion] | – | 80% | 50% | 10% | – |
| C[C@H]1[C@H](c2ccccc2)OCCN1C [Phendimetrazine] | – | 80% | 50% | 10% | – |
| Semaglutide (HAEGTFTSDVSSYLEGQAAKEFIAWLVKGRG; Glucagon-like peptide 1(7-37) semaglutide; Aib8, R34K, C18 diacid side chain; UniProt P01275 98-128, looked up) [GLP-1 agonist] | 2.9 kg./year | – | – | – | – |
| Dulaglutide | 2.9 kg./year | – | – | – | – |
| CN[C@H]1CC[C@@H](c2ccc(Cl)c(Cl)c2)c2ccccc21 [Sertraline] | – | – | – | – | evidence of weight loss: No evidence of weight loss |
| C[C@@H](Cc1ccccc1)N(C)Cc1ccccc1 [Benzphetamine] | – | 80% | 50% | 10% | – |
| CC(C)(N)Cc1ccccc1 [Phentermine] | – | 80% | 50% | 10% | – |
| Lixisenatide | 2.9 kg./year | – | – | – | – |
